Test results from patent US20190151369A1, “Engineered Stem Cell Therapy for Cardiac Repair” (Emory University, priority 2014, published 2019).
Where no end group is shown, it is not given here. The star is where a group is joined. Palmitoyl = CCCCCCCCCCCCCCCC(=O)*

What was measured:
[1] = Mechanical properties of self-assembled PA-RGDS gel (storage modulus); format: physicochemical
Text: Cardiomyocytes (CMs) derived from pluripotent stem cells (PSCs) including both embryonic stem cells (ESCs) and the induced pluripotent stem cells (iPSCs) are useful for generating new CMs in injured hearts, with PA-RGDS, which addresses low cell survival. The PA-RGDS provides a protective microenvironment for CMs in vivo. An important aspect of the PA-RGDS is the physical properties of the gels, which can be tuned to provide mechanical strength. […] PA-RGDS nanomatrix gels were also observed to be structurally stable with well-defined cylindrical shape and increased durability for handling and transport. This is particularly important for early cell survival, as cardiac tissue scaffolds require enough mechanical strength to resist the cardiac cycle, but enough flexibility to allow the contractile function of implanted CMs. The mechanical strength of PA-RGDS can be tuned for the application.

[2] = test system: mouse experimental MI; experiment: Scar area by Masson's trichrome staining of infarcted hearts; format: in vivo; conditions: 4 weeks after MI induction, N=6
Text: (§1) Myocardial infarction (MI) was induced in mice by ligation of the left anterior descending coronary artery, and cells or other reagents were intramyocardially injected through 30 G needles at two different sites in the border zone of the myocardium immediately after surgery. Mice were randomly assigned into four treatment groups: (i) PBS as a control group, (ii) 2×10^5 mESCs-derived CMs only, (iii) PA-RGDS only, or (iv) 2×10^5 mESCs-derived CMs encapsulated with PA-RGDS. Due to the limiting factor of murine heart size and the requirement to deliver a large quantity of cells, only one concentration ratio of PA […] to cells was used for the studies. All CMs were obtained from the same differentiation batch and prelabeled with CM-DiI (red fluorescence) before cell injection for cell tracking in histology.
Masson's Trichrome staining was performed with fixed sections of infarcted hearts to evaluate the extent of scar formation 4 weeks after MI induction.

[3] = test system: mouse experimental MI; experiment: Echocardiography (EF, FS) in mouse myocardial infarction model; format: in vivo; conditions: up to 4 weeks after MI induction
Text: as §1
Next, the therapeutic effects of treatments with CM only, PA-RGDS only and mESC-CMs with PA-RGDS, comparing with PBS control in ischemic myocardium in mice was investigated. Echocardiography was performed regularly to measure cardiac remodeling and function (FIG. 6A).
Prior studies reported that the beneficial effects from treatment with various types of stem cells or stem cell derived cells were substantially diminished by 3-4 weeks, mostly due to massive cell death or ejection from the myocardium. […] (FIG. 7A)

[4] = test system: RNVCMs; experiment: Live/Dead assay after H2O2 treatment (simulated ischemic injury in vitro); format: cell-based; conditions: H2O2 (200 μM) treatment
Text: Since oxidative stress in the ischemic heart is increasingly recognized as a possible cause for poor survival of transplanted cells, whether encapsulation of the CMs with PA-RGDS increases their survival when exposed to the H2O2 simulating ischemic condition in vitro was investigated.

For “CH3(CH2)14CONH-GTAGLIGQ-RGDS (Palmitoyl-GTAGLIGQRGDS) [PA-RGDS, gels made 1:1 with PA-S]”, the “Storage modulus (G′)” value [1] was “around 100 Pa”, the Scar area [2] was 41.7±4.7% and the “Cardiac function (EF and FS) by echocardiography” value [3] was “dramatically reduced”. For the same substance, the “Live cells (Live/Dead assay) after H2O2” value [4] was “increased cell survival”.
